Results from ChEMBL document CHEMBL2311382, “Tryptanthrin derivatives as Toxoplasma gondii inhibitors--structure-activity-relationship of the 6-position” (Bioorg Med Chem Lett, 2013).

system: Toxoplasma gondii; assay: Antimicrobial activity against Toxoplasma gondii assessed as inhibition of growth measured after 5 days by beta-galactosidase assay; assay type: functional; settings: 120 h, read-out: ID50 (the source's name)

| Structure (SMILES) | IC50 |
| --- | --- |
| COc1cc(Cc2cnc(N)nc2N)cc(OC)c1OC [TRIMETHOPRIM] | 15 µM |
| N/N=C1/c2cc(Br)ccc2-n2c1nc1ccccc1c2=O | 0.31 µM |
| CC(=O)O/N=C1\c2ccccc2-n2c1nc1ccccc1c2=O | 1.1 µM |
| O=c1c2ccccc2nc2n1-c1ccc(Br)cc1/C2=N/O | 0.085 µM |
| O=CO/N=C1\c2ccccc2-n2c1nc1ccccc1c2=O | 0.62 µM |
| CC1(O)c2cc(Br)ccc2-n2c1nc1ccccc1c2=O (configuration not stated) | 7 µM |
| CON=C1c2cc(Br)ccc2-n2c1nc1ccccc1c2=O (single isomer, unassigned) | 0.083 µM |
| CC(=O)N/N=C1/c2ccccc2-n2c1nc1ccccc1c2=O | 12 µM |
| CON=C1c2ccccc2-n2c1nc1ccccc1c2=O (mixture of isomers) | 1.3 µM |
| O=C1c2ccccc2-n2c1nc1ccccc1c2=O [TRYPTANTHRIN] | 0.14 µM |
| O=Nc1c2ccccc2n2c(O)c3ccccc3nc12 | 0.8 µM |
| O=C(N/N=C1/c2ccccc2-n2c1nc1ccccc1c2=O)C(F)(F)F | 1.6 µM |
| CC1(O)c2ccccc2-n2c1nc1ccccc1c2=O (configuration not stated) | 8.7 µM |
| O=C1c2ccccc2N[C@H]2[C@H](O)c3cc(Br)ccc3N12 | 0.002 µM |
| O=C1c2ccccc2N[C@H]2[C@H](O)c3ccccc3N12 | 0.24 µM |
| O=C1c2cc(Br)ccc2-n2c1nc1ccccc1c2=O | 0.00323 µM |
| CC(=O)O[C@@H]1c2ccccc2N2C(=O)c3ccccc3N[C@@H]12 | 1 µM |
| N/N=C1/c2ccccc2-n2c1nc1ccccc1c2=O | 2 µM |
| CC(=O)CC1(O)c2ccccc2-n2c1nc1ccccc1c2=O (configuration not stated) [PHAITANTHRINS A] | 0.23 µM |

system: not listed separately; assay: Cytotoxicity against human foreskin fibroblast cells by colorimetric method; assay type: cell-based; settings: human foreskin fibroblast (HFF) cells, read-out: TD50 (the source's name)

| Structure (SMILES) | CC50 |
| --- | --- |
| COc1cc(Cc2cnc(N)nc2N)cc(OC)c1OC [TRIMETHOPRIM] | > 100 µM |
| N/N=C1/c2cc(Br)ccc2-n2c1nc1ccccc1c2=O | 79 µM |
| CC(=O)O/N=C1\c2ccccc2-n2c1nc1ccccc1c2=O | 35 µM |
| O=c1c2ccccc2nc2n1-c1ccc(Br)cc1/C2=N/O | 50 µM |
| O=CO/N=C1\c2ccccc2-n2c1nc1ccccc1c2=O | 22 µM |
| CC1(O)c2cc(Br)ccc2-n2c1nc1ccccc1c2=O (configuration not stated) | > 100 µM |
| CON=C1c2cc(Br)ccc2-n2c1nc1ccccc1c2=O (single isomer, unassigned) | > 100 µM |
| CC(=O)N/N=C1/c2ccccc2-n2c1nc1ccccc1c2=O | > 100 µM |
| CON=C1c2ccccc2-n2c1nc1ccccc1c2=O (mixture of isomers) | > 100 µM |
| O=C1c2ccccc2-n2c1nc1ccccc1c2=O [TRYPTANTHRIN] | 6.4 µM |
| O=Nc1c2ccccc2n2c(O)c3ccccc3nc12 | > 100 µM |
| O=C(N/N=C1/c2ccccc2-n2c1nc1ccccc1c2=O)C(F)(F)F | > 100 µM |
| CC1(O)c2ccccc2-n2c1nc1ccccc1c2=O (configuration not stated) | > 100 µM |
| O=C1c2ccccc2N[C@H]2[C@H](O)c3cc(Br)ccc3N12 | > 100 µM |
| O=C1c2ccccc2N[C@H]2[C@H](O)c3ccccc3N12 | 12 µM |
| O=C1c2cc(Br)ccc2-n2c1nc1ccccc1c2=O | > 100 µM |
| CC(=O)O[C@@H]1c2ccccc2N2C(=O)c3ccccc3N[C@@H]12 | 40 µM |
| N/N=C1/c2ccccc2-n2c1nc1ccccc1c2=O | 32 µM |
| CC(=O)CC1(O)c2ccccc2-n2c1nc1ccccc1c2=O (configuration not stated) [PHAITANTHRINS A] | 11 µM |

system: not listed separately; assay: Therapeutic index, ratio of TD50 for human foreskin fibroblast cells to ID 50 for Toxoplasma gondii; assay type: cell-based; settings: read-out: TI

| Structure (SMILES) | selectivity ratio |
| --- | --- |
| COc1cc(Cc2cnc(N)nc2N)cc(OC)c1OC [TRIMETHOPRIM] | > 3 |
| N/N=C1/c2cc(Br)ccc2-n2c1nc1ccccc1c2=O | 250 |
| CC(=O)O/N=C1\c2ccccc2-n2c1nc1ccccc1c2=O | 32 |
| O=c1c2ccccc2nc2n1-c1ccc(Br)cc1/C2=N/O | 590 |
| O=CO/N=C1\c2ccccc2-n2c1nc1ccccc1c2=O | 35 |
| CC1(O)c2cc(Br)ccc2-n2c1nc1ccccc1c2=O (configuration not stated) | > 14 |
| CON=C1c2cc(Br)ccc2-n2c1nc1ccccc1c2=O (single isomer, unassigned) | > 1200 |
| CC(=O)N/N=C1/c2ccccc2-n2c1nc1ccccc1c2=O | > 8.3 |
| CON=C1c2ccccc2-n2c1nc1ccccc1c2=O (mixture of isomers) | > 77 |
| O=C1c2ccccc2-n2c1nc1ccccc1c2=O [TRYPTANTHRIN] | 45 |
| O=Nc1c2ccccc2n2c(O)c3ccccc3nc12 | > 130 |
| O=C(N/N=C1/c2ccccc2-n2c1nc1ccccc1c2=O)C(F)(F)F | > 63 |
| CC1(O)c2ccccc2-n2c1nc1ccccc1c2=O (configuration not stated) | > 11 |
| O=C1c2ccccc2N[C@H]2[C@H](O)c3cc(Br)ccc3N12 | > 50000 |
| O=C1c2ccccc2N[C@H]2[C@H](O)c3ccccc3N12 | 50 |
| O=C1c2cc(Br)ccc2-n2c1nc1ccccc1c2=O | > 33000 |
| CC(=O)O[C@@H]1c2ccccc2N2C(=O)c3ccccc3N[C@@H]12 | 40 |
| N/N=C1/c2ccccc2-n2c1nc1ccccc1c2=O | 16 |
| CC(=O)CC1(O)c2ccccc2-n2c1nc1ccccc1c2=O (configuration not stated) [PHAITANTHRINS A] | 49 |
